This is an account of results in PubChem BioAssay (NCI).

Test systems include SW-620 colon; 786-0 renal; OVCAR-3 ovarian; ACHN renal; HCT-15 colon; UO-31 renal; A549 NSCLC; U251 CNS; HL-60(TB) leukemia; HCC-2998 colon.
Common to all, as to test: inhibition of tumour cell growth, NCI panel, 48 h

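1) Cells in 96-well plates. 2) Compound, 48 h, 5 concentrations. 3) Linear interpolation between surrounding doses. 4) Unreached endpoint = highest concentration. Here, GI50 denotes the concentration required for 50% inhibition of growth. TGI marks complete inhibition of growth.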 Where only a bound is given, the exact number is not on record here.

`Nc1nc(OCc2ccccc2)nc2[nH]ncc12`: the GI50 in the experiment with SW-620 colon is 18.9 µM; in the experiment on 786-0 renal it was 18.7 µM; in the experiment on OVCAR-3 ovarian, 11.5 µM; in the experiment with ACHN renal, 25.5 µM; in the experiment with HCT-15 colon, 30.9 µM; in the experiment with UO-31 renal, 20 µM. The GI50 with A549 NSCLC is 27.7 µM; in the experiment with U251 CNS, 18.9 µM. Further, the TGI in the experiment on SW-620 colon is 39.3 µM; in the experiment on 786-0 renal, 44.4 µM; in the experiment with OVCAR-3 ovarian, 25.2 µM; in the experiment with ACHN renal, greater than 100 µM; in the experiment with HCT-15 colon, greater than 100 µM; with UO-31 renal it was greater than 100 µM. In addition, the TGI with A549 NSCLC was greater than 100 µM; in the experiment on U251 CNS, 42.2 µM.
On to `C=C(C)[C@@H]1CC[C@@]2(C)[C@H]1[C@H]1CCC3[C@@]4(C)CC[C@H](O)C(C)(C)[C@@H]4CC[C@@]3(C)[C@]1(C)C[C@@H]2O` (stereo partly specified), for which the TGI in the experiment on SW-620 colon, in the experiment on HL-60(TB) leukemia, with 786-0 renal, with OVCAR-3 ovarian, in the experiment with ACHN renal and in the experiment with HCT-15 colon was greater than 100 µM in each case. Moreover, the TGI in the experiment with A549 NSCLC and with U251 CNS was greater than 100 µM throughout.
`O=[N+]([O-])c1nccn1CC1OC(n2ccnc2[N+](=O)[O-])C(O)C(O)C1O` (stereo unspecified): the TGI with SW-620 colon, with HL-60(TB) leukemia, in the experiment on 786-0 renal, in the experiment on ACHN renal, in the experiment on UO-31 renal and in the experiment on HCC-2998 colon was greater than 100 µM throughout. Further, the TGI with A549 NSCLC and in the experiment with U251 CNS was greater than 100 µM in each case.
Regarding `COc1cc(Oc2c(O)c(C)c(OC)c(C(C)=O)c2O)c(C(C)=O)c(O)c1C`, the TGI with SW-620 colon, in the experiment on 786-0 renal, in the experiment on OVCAR-3 ovarian, in the experiment with ACHN renal, with HCT-15 colon and in the experiment with UO-31 renal was greater than 100 µM throughout. Also, the TGI in the experiment on HCC-2998 colon, in the experiment with A549 NSCLC and with U251 CNS was greater than 100 µM each time.
For `S=c1ssc(Sc2ccccn2)c1Cl`, the GI50 in the experiment on HL-60(TB) leukemia is 3.56 µM; in the experiment on 786-0 renal it was 4.09 µM; in the experiment with OVCAR-3 ovarian it was 13.2 µM; in the experiment with ACHN renal, 4.62 µM; in the experiment with HCT-15 colon it was 5.26 µM; in the experiment on UO-31 renal it was 6.51 µM. Besides, the GI50 in the experiment on HCC-2998 colon is 3.97 µM; with A549 NSCLC, 21 µM; in the experiment with U251 CNS it was 11 µM. Further, the TGI was 9.78 µM with HL-60(TB) leukemia; 14.4 µM with 786-0 renal; 25.9 µM in the experiment on OVCAR-3 ovarian; 16.7 µM in the experiment on ACHN renal; 18.1 µM with HCT-15 colon; greater than 100 µM with UO-31 renal. Further, the values for the TGI in the experiment with HCC-2998 colon, in the experiment on A549 NSCLC and with U251 CNS were 15.1 µM, 42.7 µM and 22.9 µM, respectively.
As for `C/C=C(/CCCCNCCCC)[Si](C)(C)C`, the TGI in the experiment on SW-620 colon was determined as 34.1 µM; in the experiment on 786-0 renal it was 25.5 µM; in the experiment with OVCAR-3 ovarian it was 28.3 µM; in the experiment on ACHN renal, 26.9 µM; in the experiment with HCT-15 colon, 30 µM; in the experiment on UO-31 renal it was 31.4 µM. The values for the TGI in the experiment on HCC-2998 colon, with A549 NSCLC and with U251 CNS were 18.2 µM, 30.3 µM and 26.3 µM, respectively.
As for `Cc1cn2c(/C=N/N/C(N)=N\N)c(-c3ccc(Cl)c([N+](=O)[O-])c3)nc2s1`, the GI50 in the experiment on HL-60(TB) leukemia is 25.2 µM; with 786-0 renal it was 0.859 µM; with OVCAR-3 ovarian, 0.865 µM; with ACHN renal, 0.928 µM; in the experiment with HCT-15 colon, 0.968 µM; in the experiment with UO-31 renal it was 9.45 µM. The GI50 in the experiment with U251 CNS is 0.914 µM. Also, the TGI is greater than 50 µM in the experiment with HL-60(TB) leukemia; 1.73 µM with 786-0 renal; 1.75 µM in the experiment with OVCAR-3 ovarian; 1.63 µM with ACHN renal; 2.04 µM in the experiment with HCT-15 colon; 22.5 µM with UO-31 renal. The compound further returned a TGI in the experiment on U251 CNS of 1.63 µM.
For the compound `COc1ccc2c(c1)nc(N)c1c3cccnc3cn21`, the GI50 in the experiment on SW-620 colon is 0.0373 µM; with HL-60(TB) leukemia it was 0.0313 µM; in the experiment with 786-0 renal, 0.115 µM; in the experiment on ACHN renal, 0.0938 µM; in the experiment on HCT-15 colon, 0.0456 µM; in the experiment on UO-31 renal it was 0.0776 µM. The GI50 is 0.103 µM in the experiment on HCC-2998 colon, 0.0565 µM with A549 NSCLC and 0.0474 µM in the experiment with U251 CNS. Moreover, the TGI in the experiment on SW-620 colon came to 14.5 µM; in the experiment with HL-60(TB) leukemia it was 18.3 µM; in the experiment with 786-0 renal it was 16.7 µM; in the experiment on ACHN renal it was 15 µM; in the experiment on HCT-15 colon, 33.7 µM; in the experiment on UO-31 renal, 17.9 µM. Besides, the TGI came to 17.5 µM in the experiment on HCC-2998 colon, 16.6 µM in the experiment with A549 NSCLC and 14.6 µM in the experiment with U251 CNS.
Regarding `COc1ccc(COCC(Cn2ccnc2)OCc2ccc(C(=O)O)cc2)cc1` (stereo unspecified), the TGI with SW-620 colon, with HL-60(TB) leukemia, with 786-0 renal, with ACHN renal, in the experiment on HCT-15 colon and in the experiment on UO-31 renal was greater than 100 µM throughout. Also, the TGI with HCC-2998 colon, in the experiment with A549 NSCLC and in the experiment on U251 CNS was greater than 100 µM in each case.
For `COc1ccc2cc3n(c2c1)CCc1cc(OC)c(OC)cc1-3`, the TGI in the experiment with SW-620 colon, with HL-60(TB) leukemia, with 786-0 renal, in the experiment on ACHN renal, in the experiment with UO-31 renal and in the experiment with HCC-2998 colon was greater than 100 µM in each case. Also, the TGI in the experiment on A549 NSCLC and in the experiment with U251 CNS was greater than 100 µM each time.
In the case of `O=C(O)c1c[nH]cc1C(=O)O`, the TGI with SW-620 colon, with HL-60(TB) leukemia, in the experiment on 786-0 renal, in the experiment with OVCAR-3 ovarian, with HCT-15 colon and in the experiment on UO-31 renal was greater than 100 µM each time. Further, the TGI with A549 NSCLC and with U251 CNS was greater than 100 µM in each case.
As to `CC(=O)Oc1ccccc1C(=O)C1c2cccc(O)c2C(=O)c2c(O)cccc21`, the TGI with SW-620 colon came to 2.26 µM; with HL-60(TB) leukemia, 0.727 µM; with 786-0 renal it was 3.98 µM; in the experiment on ACHN renal, 3.45 µM; in the experiment with HCT-15 colon, 9.56 µM; in the experiment with UO-31 renal, 1.68 µM. Besides, the TGI in the experiment with HCC-2998 colon stood at 6.5 µM; in the experiment with A549 NSCLC, 2.86 µM; with U251 CNS, 1.99 µM.
As to `N#Cc1ccccc1NC(=O)c1ccccc1`, the TGI in the experiment on SW-620 colon, with 786-0 renal, in the experiment with OVCAR-3 ovarian, with ACHN renal, in the experiment with HCT-15 colon and in the experiment with A549 NSCLC was greater than 100 µM throughout. In addition, the TGI in the experiment on U251 CNS was greater than 100 µM.
Regarding `N/N=C(\Cc1ccccc1)NN=C(N)N`, the TGI in the experiment on SW-620 colon, in the experiment with HL-60(TB) leukemia, in the experiment on 786-0 renal, in the experiment on ACHN renal, in the experiment on HCT-15 colon and in the experiment with UO-31 renal was greater than 100 µM in each case. Moreover, the TGI with HCC-2998 colon, in the experiment on A549 NSCLC and with U251 CNS was greater than 100 µM in each case.
With `COc1ccc(-c2ccc(/C=N/n3c(COc4ccc(Cl)cc4)n[nH]c3=S)o2)c([N+](=O)[O-])c1`, the GI50 in the experiment on HL-60(TB) leukemia was 14.8 µM; in the experiment with 786-0 renal, 18.4 µM; in the experiment with ACHN renal, 17.2 µM; in the experiment on HCT-15 colon it was 16 µM; with UO-31 renal, 33.5 µM; in the experiment on HCC-2998 colon, 16.5 µM. The values for the GI50 with A549 NSCLC and with U251 CNS were 11.6 µM and 15.5 µM, respectively. Also, the TGI in the experiment with HL-60(TB) leukemia was 44.3 µM; in the experiment with 786-0 renal, 44.7 µM; in the experiment on ACHN renal, 39.6 µM; with HCT-15 colon, 45.8 µM; in the experiment on UO-31 renal it was greater than 100 µM; in the experiment with HCC-2998 colon, 31.2 µM. Also, the TGI in the experiment with A549 NSCLC stood at 44.1 µM; with U251 CNS, 49.7 µM.
Turning to `CC(C)(Br)C(=O)/C=C/c1ccccc1`, the TGI was found to be 6.79 µM with SW-620 colon; 29 µM in the experiment with HL-60(TB) leukemia; 2.22 µM in the experiment with 786-0 renal; 25.4 µM with OVCAR-3 ovarian; 6.74 µM in the experiment on ACHN renal; 4.63 µM with HCT-15 colon. The TGI in the experiment with UO-31 renal came out at 3.68 µM; in the experiment with A549 NSCLC, 56.7 µM; in the experiment on U251 CNS, 20.5 µM.
Consider `O=[N+]([O-])c1ccc(CS(=O)Cc2ccccc2)cc1` (stereo unspecified), for which the TGI with SW-620 colon, with HL-60(TB) leukemia, in the experiment with 786-0 renal, in the experiment with OVCAR-3 ovarian, in the experiment with ACHN renal and in the experiment on HCT-15 colon was greater than 100 µM in each case. In addition, the TGI in the experiment with UO-31 renal, in the experiment on A549 NSCLC and in the experiment with U251 CNS was greater than 100 µM each time.
`COc1cnc2c(c1)C(=O)c1c-2n(CCCN2CCCC2)c(=O)c2cc(Cl)ccc12`: the GI50 in the experiment on SW-620 colon is 0.0313 µM; with HL-60(TB) leukemia, 6.23 µM; in the experiment with 786-0 renal, 1.47 µM; in the experiment on ACHN renal, 0.0753 µM; in the experiment on HCT-15 colon, 1.73 µM; with UO-31 renal it was 0.599 µM. Besides, the GI50 in the experiment on HCC-2998 colon is 5.07 µM; in the experiment on A549 NSCLC, 0.605 µM; with U251 CNS, 0.0383 µM. The TGI with SW-620 colon is 8.09 µM; with HL-60(TB) leukemia it was 15.2 µM; with 786-0 renal it was 9.66 µM; in the experiment on ACHN renal, 6.42 µM; with HCT-15 colon it was 10.3 µM; in the experiment on UO-31 renal, 9.02 µM. Moreover, the TGI in the experiment on HCC-2998 colon worked out at 12.1 µM; in the experiment on A549 NSCLC it was 10.2 µM; in the experiment with U251 CNS it was 7.96 µM.
As for `CN(C)C(=O)C1CCC(=C2C(=O)OC(C)(C)OC2=O)N1C` (stereo unspecified), the TGI with SW-620 colon, in the experiment with 786-0 renal, in the experiment with OVCAR-3 ovarian, with ACHN renal, with HCT-15 colon and with UO-31 renal was greater than 100 µM throughout. Besides, the TGI in the experiment on HCC-2998 colon, in the experiment with A549 NSCLC and with U251 CNS was greater than 100 µM each time.
